Experimental findings from PubChem BioAssay (NCI) are described below.

Among the test systems are A498 renal; BT-549 breast; HCC-2998 colon; HL-60(TB) leukemia; IGROV1 ovarian; MOLT-4 leukemia; NCI-H23 lung; OVCAR-3 ovarian; SF-295 CNS; TK-10 renal.
Holding throughout (test): NCI tumour cell line growth inhibition, 48 h

Structures are written as SMILES.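 Tested at 5 concentrations; 48 h exposure; 96-well plates; endpoints linearly interpolated, else capped at highest concentration. At the GI50, growth is halved. TGI: total growth inhibition.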

As to `CC(=O)OC(CC(C)C)P1(=O)N(CC(C)(C)C)[C@@H]2CCCC[C@H]2N1CC(C)(C)C` (some centres not stated), the TGI in the experiment on A498 renal amounted to 19.3 µM; in the experiment with BT-549 breast, 29.2 µM; in the experiment on HCC-2998 colon it was 18.3 µM; in the experiment with HL-60(TB) leukemia, 23.1 µM; in the experiment with IGROV1 ovarian, 24.2 µM; in the experiment with MOLT-4 leukemia, 25.3 µM. The TGI in the experiment on NCI-H23 lung worked out at 23.1 µM; with OVCAR-3 ovarian it was 23.1 µM; in the experiment on SF-295 CNS, 20.4 µM; in the experiment with TK-10 renal, 24.7 µM.
Take `COC(=O)C1=C(O)C(C(=O)OC)[C@]2(O)[C@H](C(=O)OC)[C@H]1C[C@@H](c1cccc(OC)c1)[C@H]2C(=O)OC` (some centres not stated): the TGI was 55.9 µM with A498 renal; over 100 µM in the experiment with BT-549 breast; 42.7 µM with HCC-2998 colon; over 100 µM in the experiment on HL-60(TB) leukemia; over 100 µM in the experiment with IGROV1 ovarian; over 100 µM in the experiment on MOLT-4 leukemia. Also, the TGI in the experiment on NCI-H23 lung, with SF-295 CNS and in the experiment with TK-10 renal was over 100 µM in each case.
With `O=C(O)C(F)(F)C(F)(F)C(F)(F)C(F)(F)C(=O)O`, the TGI in the experiment with A498 renal, in the experiment on BT-549 breast, with HCC-2998 colon, in the experiment with HL-60(TB) leukemia, in the experiment on IGROV1 ovarian and in the experiment with NCI-H23 lung was over 100 µM each time. The TGI in the experiment with OVCAR-3 ovarian, with SF-295 CNS and with TK-10 renal was over 100 µM throughout.
Turning to `COc1cc(C(=O)O[C@H](C(=O)NCCNC(=O)[C@@H](OC(=O)c2cc(OC)cc3c(C)cccc23)[C@]2(C)CO2)[C@]2(C)CO2)c2cccc(C)c2c1`, the GI50 in the experiment on A498 renal was 2.21 µM; in the experiment on BT-549 breast, 0.335 µM; in the experiment on HCC-2998 colon, 0.0953 µM; in the experiment with HL-60(TB) leukemia, under 0.01 µM; with IGROV1 ovarian it was under 0.0475 µM; with MOLT-4 leukemia it was under 0.01 µM. The GI50 was under 0.01 µM in the experiment with NCI-H23 lung, 0.721 µM in the experiment on OVCAR-3 ovarian, 0.173 µM in the experiment on SF-295 CNS and 0.475 µM with TK-10 renal. Moreover, the TGI is 4.35 µM in the experiment on A498 renal; 3.39 µM in the experiment with BT-549 breast; 2.49 µM in the experiment with HCC-2998 colon; 5.28 µM in the experiment with IGROV1 ovarian; over 100 µM in the experiment on MOLT-4 leukemia; 0.0987 µM in the experiment on NCI-H23 lung. Also, the TGI in the experiment on OVCAR-3 ovarian was determined as 7.63 µM; in the experiment with SF-295 CNS it was 0.793 µM; with TK-10 renal, 1.9 µM.
With `CSc1nc2c(c(=O)n1C)N=C(c1ccc(Cl)cc1)CC(c1ccccc1)N2` (configuration not stated), the TGI is over 100 µM in the experiment with A498 renal; 56.1 µM with BT-549 breast; 53.1 µM with HCC-2998 colon; 62.4 µM in the experiment with HL-60(TB) leukemia; 55.4 µM in the experiment on IGROV1 ovarian; 53.9 µM with MOLT-4 leukemia. Further, the results for the TGI in the experiment with NCI-H23 lung, in the experiment with OVCAR-3 ovarian and in the experiment with SF-295 CNS were 62 µM, over 100 µM and 53.1 µM, respectively.
With `O=C(O)CCC(C(=O)O)N1C(=O)c2ccccc2C1=O` (configuration not stated), the TGI with A498 renal, in the experiment with BT-549 breast, in the experiment on HCC-2998 colon, in the experiment with HL-60(TB) leukemia, with IGROV1 ovarian and in the experiment on NCI-H23 lung was over 100 µM each time. Moreover, the TGI in the experiment with OVCAR-3 ovarian, with SF-295 CNS and with TK-10 renal was over 100 µM each time.
Turning to `COC(=O)c1c(O)ccc2c1c1c(n2Cc2ccc(OC)cc2)C(=O)c2ccccc2C1=O`, the TGI turned out to be 47.2 µM in the experiment with A498 renal; 3.06 µM in the experiment with BT-549 breast; 7.18 µM with HCC-2998 colon; 12.1 µM with HL-60(TB) leukemia; 21.4 µM in the experiment with IGROV1 ovarian; 32.2 µM in the experiment on NCI-H23 lung. The values for the TGI with OVCAR-3 ovarian, in the experiment with SF-295 CNS and with TK-10 renal were 43.9 µM, 39 µM and over 100 µM, respectively.
For `O=C(O)CS(=O)c1ccc2c3c(cccc13)C(=O)c1ccccc1-2` (configuration not stated), the TGI in the experiment with A498 renal, in the experiment with BT-549 breast, in the experiment on HCC-2998 colon, in the experiment with HL-60(TB) leukemia, in the experiment on IGROV1 ovarian and in the experiment on NCI-H23 lung was over 100 µM each time. The TGI in the experiment on OVCAR-3 ovarian, in the experiment with SF-295 CNS and in the experiment with TK-10 renal was over 100 µM each time.
In the case of `COC(=O)c1c(C)ccc2c(O)c3c(cc12)C(=O)c1c2c(cc(O)c1C3=O)C1(C)OC(C)(O2)C(O)C(N(C)C)C1O` (configuration not stated), the TGI stood at 7.46 µM in the experiment with A498 renal; 10.7 µM with BT-549 breast; 1.39 µM with HCC-2998 colon; 15.4 µM with HL-60(TB) leukemia; 3.2 µM in the experiment with MOLT-4 leukemia; 3.03 µM in the experiment with NCI-H23 lung. Further, the TGI in the experiment with OVCAR-3 ovarian was determined as 9.59 µM; in the experiment with SF-295 CNS, 25.1 µM; with TK-10 renal it was 2.68 µM.
In the case of `CC(C)(C)OC(=O)NC1CCCC1C(O)(C1=CCCC1)C1=CCCC1` (configuration not stated), the TGI in the experiment with A498 renal, with BT-549 breast, with HCC-2998 colon, in the experiment on HL-60(TB) leukemia, with IGROV1 ovarian and with MOLT-4 leukemia was over 100 µM each time. The TGI in the experiment on NCI-H23 lung and with OVCAR-3 ovarian was over 100 µM each time.
`Cc1ccc(S(=O)(=O)N(CC(O)c2ccccc2)c2ccccc2F)cc1` (configuration not stated): the TGI was 36 µM with A498 renal; 32 µM in the experiment with BT-549 breast; 53.2 µM in the experiment with HCC-2998 colon; 9.13 µM in the experiment on HL-60(TB) leukemia; 41.2 µM in the experiment on IGROV1 ovarian; 36.9 µM in the experiment with NCI-H23 lung. Moreover, the TGI with OVCAR-3 ovarian amounted to 25 µM; in the experiment with SF-295 CNS it was 37.9 µM; with TK-10 renal, 45.8 µM.
In the case of `CC1(C)CC(=O)C2=C(C1)NC(SCC(=O)O)=C(C#N)C2c1ccc(Br)cc1` (configuration not stated), the TGI in the experiment with A498 renal, with BT-549 breast, in the experiment on HCC-2998 colon, with HL-60(TB) leukemia, with IGROV1 ovarian and in the experiment with NCI-H23 lung was over 100 µM in each case. The TGI in the experiment with OVCAR-3 ovarian, with SF-295 CNS and with TK-10 renal was over 100 µM each time.
Regarding `C/C=C1/CN2[C@@H](C3=C[C@@H]4[C@@H]5N(C3=O)c3ccccc3[C@@]53CCN5C/C(=C/C)[C@@H]4C[C@H]53)C[C@@]34c5ccccc5N5C(=O)CC=C([C@H]1C[C@H]23)[C@H]54`, the TGI in the experiment on A498 renal was 14.5 µM; in the experiment with BT-549 breast, 15.7 µM; in the experiment on HCC-2998 colon, 8.75 µM; in the experiment with HL-60(TB) leukemia it was 2.2 µM; in the experiment on MOLT-4 leukemia, 6.28 µM; with NCI-H23 lung, 14.3 µM. For the same compound, the TGI with OVCAR-3 ovarian turned out to be 15.8 µM; in the experiment on SF-295 CNS it was 16.4 µM; in the experiment on TK-10 renal it was 15 µM.
